Experimental data as given in patent publication US5610143A, “Antibiotics GE 37468 A, B and C” (Gruppo Lepetit S.p.A., priority 1995, dated 1997).

Key:
[1] = tested on: Staphylococcus aureus Smith; assay: MIC by broth microdilution; type: cell-based; conditions: Iso-Sensitest broth, inoculum 10^4 CFU/ml, 20-24 h, 37° C.
[2] = tested on: Neisseria gonorrhoeae L997; conditions: GC Base broth +1% IsoVitalex, inoculum 10^4 CFU/ml, 48 h, 37° C., 5% CO2 in air
[3] = tested on: Staphylococcus aureus L165; conditions: Iso-Sensitest broth, inoculum 10^4 CFU/ml, 20-24 h, 37° C.
[4] = tested on: Enterococcus faecalis ATCC 7080; assay: MIC by broth microdilution; type: cell-based; conditions: Iso-Sensitest broth, inoculum 10^4 CFU/ml, 20-24 h, 37° C.
[5] = tested on: Escherichia coli L47; conditions: Iso-Sensitest broth, inoculum 10^4 CFU/ml, 20-24 h, 37° C.
[6] = tested on: Pseudomonas aeruginosa ATCC 10145; conditions: Iso-Sensitest broth, inoculum 10^4 CFU/ml, 20-24 h, 37° C.
[7] = tested on: Clostridium perfringens L290; conditions: Wilkins-Chalgren broth, inoculum 10^5, 48 h, 37° C., N2:CO2:H2 (80:10:10)
[8] = tested on: Candida albicans L145; conditions: phosphate buffered Yeast Nitrogen Base broth with glucose and L-asparagine, inoculum 10^4 CFU/ml, 20-24 h, 37° C.
[9] = tested on: Proteus vulgaris ATCC 881; conditions: Iso-Sensitest broth, inoculum 10^4 CFU/ml, 20-24 h, 37° C.
[10] = tested on: Propionibacterium acnes ATCC 6919; assay: MIC by broth microdilution; type: cell-based; conditions: Wilkins-Chalgren broth, inoculum 10^5, 48 h, 37° C., N2:CO2:H2 (80:10:10)
[11] = tested on: Bacteroides fragiles ATCC 25285; conditions: Wilkins-Chalgren broth, inoculum 10^5, 48 h, 37° C., N2:CO2:H2 (80:10:10)
[12] = tested on: Staphylococcus haemolyticus L602; conditions: Iso-Sensitest broth, inoculum 10^4 CFU/ml, 20-24 h, 37° C.
[13] = tested on: Haemophilus influenzae ATCC 19418; conditions: Brain Heart Infusion broth +1% Supplement C, inoculum 10^4 CFU/ml, 48 h, 37° C., 5% CO2 in air
[14] = tested on: Staphylococcus epidermidis ATCC 12228; conditions: Iso-Sensitest broth, inoculum 10^4 CFU/ml, 20-24 h, 37° C.

| Compound | M.I.C. [1] [microgram/ml] | M.I.C. [2] [microgram/ml] | M.I.C. [3] [microgram/ml] | M.I.C. [4] [microgram/ml] | M.I.C. [5] [microgram/ml] | M.I.C. [6] [microgram/ml] | M.I.C. [7] [microgram/ml] | M.I.C. [8] [microgram/ml] | M.I.C. [9] [microgram/ml] | M.I.C. [10] [microgram/ml] | M.I.C. [11] [microgram/ml] | M.I.C. [12] [microgram/ml] | M.I.C. [13] [microgram/ml] | M.I.C. [14] [microgram/ml] |
| --- | --- | --- | --- | --- | --- | --- | --- | --- | --- | --- | --- | --- | --- | --- |
| Cc1oc2nc1C(=O)NC(CC(N)=O)c1nc(cs1)C(=O)NC(Cc1ccccc1)C1=NC(CS1)C(=O)NC(Cc1ccc(O)cc1)C(=O)N1C(O)CC(C)C1c1nc(cs1)-c1nc(cs1)-c1nc(-c3nc(C(N)=O)cs3)ccc1-2 (stereo not shown) [GE37468B] | 0.03 | > 128 | 0.03 | 0.03 | > 128 | > 128 | 0.016 | > 128 | > 128 | 0.016 | > 128 | 0.13 | > 128 | 0.06 |
| C=C(NC(=O)c1csc(-c2ccc3c(n2)-c2csc(n2)-c2csc(n2)C2C(C)CC(O)N2C(=O)C(Cc2ccc(O)cc2)NC(=O)C2CSC(=N2)C(Cc2ccccc2)NC(=O)c2csc(n2)C(CC(N)=O)NC(=O)c2nc-3oc2C)n1)C(N)=O (stereo not shown) [GE37468C] | 0.03 | > 128 | 0.03 | 0.03 | > 128 | > 128 | 0.016 | > 128 | > 128 | 0.016 | > 128 | 0.13 | > 128 | 0.25 |
